Test results taken from patent publication US10273251B2, “Composition, cured film, near infrared ray absorption filter, solid-state imaging device, infrared sensor, and compound” (FUJIFILM Corporation, priority 2014, dated 2019).

What was measured:
Assay type in all cases: physicochemical
[1] = Solubility of the compound to propylene glycol monomethyl ether acetate; conditions: visually observed
From the text: Solubility of the compound to propylene glycol monomethyl ether acetate was visually observed.

[2] = Evaluation of maximum absorption wavelength, half-width and absorbance ratio (liquid absorption spectrum); conditions: 2.5×10^−6 mol/L, optical path length 10 mm
Protocol: —Evaluation of Maximum Absorption Wavelength, Half-Width, and Absorbance Ratio—Respective compounds were dissolved in measuring solvents (concentration: 2.5×10^−6 mol/L) described in the table below so as to measure an absorption spectrum (Optical path length: 10 mm).
Maximum absorption wavelengths (λmax) of absorption spectrums, half-widths of the maximum absorption wavelengths, and absorbance ratios (550 nm/λmax) which are values obtained by dividing absorbance at a wavelength of […] by absorbance at the maximum absorption wavelength with respect to respective compounds are presented in Table 1 below. FIG. 3 illustrates an absorption spectrum of the compound D-1 in chloroform.

[3] = as above; conditions: 2.5×10^−6 mol/L, optical path length 10 mm; remark: listed apart in the source
[4] = Heat resistance of near infrared ray absorption filter (ΔEab before/after heating); conditions: filter 1.0 μm, 7.5 mass % compound; 260° C. for 30 minutes on hot plate; ΔEab class
Protocol: (§1) Compositions below were mixed so as to prepare the composition. A solid content of the composition is 31 mass % and a content of the near infrared ray absorption substance with respect to the total solid content of the composition was 7.5 mass %.
(§2) Glass substrates (1737 manufactured by Corning Incorporated) were coated with respective compositions by using a spin coater such that film thicknesses after drying become 1.0 μm, and a heating treatment (prebaking) was performed for 120 seconds by using a hot plate of 100° C.
(§3) Subsequently, beta exposure was performed by 500 mJ/cm^2 by using an i-ray stepper exposure device FPA-3000i5+ (manufactured by Canon Inc.). Subsequently, puddle development was performed at 23° C. for 60 seconds by using CD-2060 (manufactured by Fujifilm Electronic Materials), a rinse treatment was performed with pure water on a glass substrate on which a beta coloration layer was formed, and spray drying was performed.
(§4) The heating treatment (post baking) was performed for 300 seconds by using a hot plate of 200° C., so as to obtain a near infrared ray absorption filter.
After the near infrared ray absorption filter was heated to 260° C. for 30 minutes by a hot plate, the ΔEab value of a color difference before and after heat resistance test was measured using a color meter MCPD-1000 (manufactured by Otsuka Electronics Co., Ltd.), so as to evaluate a criterion below. A smaller ΔEab value indicates more satisfactory heat resistance.

[5] = Light fastness of near infrared ray absorption filter (ΔEab before/after xenon lamp); conditions: filter 1.0 μm, 7.5 mass % compound; xenon lamp 50,000 lux for 20 hours; ΔEab class
Protocol: as §1, §2, §3, §4
After the near infrared ray absorption filter was irradiated with a xenon lamp was applied by 50,000 lux for 20 hours (corresponding to 1,000,000 lux·h), an ΔEab value of a color difference before and after a light-fast test was measured. A smaller ΔEab value indicates more satisfactory light fastness.
The ΔEab value is a value obtained from a color difference equation below according to a CIE 1976 (L*, a*, b*) space color system (Handbook of Color Science, New Edition, edited by the Color Science Association of Japan, (1985), p. 266). ΔEab={(ΔL*)^2[…](Δa*)^2+(Δb*)^2}^1/2

[6] = measuring solvent ethyl acetate
[7] = measuring solvent tetrahydrofuran

| SMILES | Solubility [1] | Half-width ([2]; measuring solvent chloroform) | Maximum absorption wavelength ([2]; measuring solvent chloroform) | Half-width [2, 6] | Maximum absorption wavelength [2, 6] | Half-width [2, 7] | Maximum absorption wavelength [2, 7] | Absorbance ratio (550 nm/λmax) ([3]; measuring solvent chloroform) | Absorbance ratio (550 nm/λmax) [3, 6] | Absorbance ratio (550 nm/λmax) [3, 7] | Heat resistance [4] | Light fastness [5] |
| --- | --- | --- | --- | --- | --- | --- | --- | --- | --- | --- | --- | --- |
| CCCCCCCCC(CCCCCC)COc1cccc(-c2c3/c(=C(\C#N)c4cnc5cc(Cl)c(Cl)cc5n4)n(B(c4ccccc4)c4ccccc4)c(-c4cccc(OCC(CCCCCC)CCCCCCCC)c4)c3/c(=C(\C#N)c3cnc4cc(Cl)c(Cl)cc4n3)n2B(c2ccccc2)c2ccccc2)c1 [Compound D-1] | A (Solubility 2% or greater) | 29 nm | 884 nm | 30 nm | 880 nm | 29 nm | 884 nm | 0.011 | 0.011 | 0.01 | 5 (ΔEab value<3) | 5 (ΔEab value<3) |
| Cc1cc2ncc(/C(C#N)=c3/c4c(-c5cccc(OCC(CCC(C)CC(C)(C)C)C(C)CC(C)(C)C)c5)n(B(c5ccccc5)c5ccccc5)/c(=C(/C#N)c5cnc6cc(C)c(C)cc6n5)c4c(-c4cccc(OCC(CCC(C)CC(C)(C)C)C(C)CC(C)(C)C)c4)n3B(c3ccccc3)c3ccccc3)nc2cc1C [Compound D-6] | A (Solubility 2% or greater) | 32 nm | 872 nm |  |  |  |  | 0.01 |  |  | 5 (ΔEab value<3) | 5 (ΔEab value<3) |
| COCCOCCOc1cccc(-c2c3/c(=C(\C#N)c4cnc5cc(Cl)c(Cl)cc5n4)n(B(c4ccccc4)c4ccccc4)c(-c4cccc(OCCOCCOC)c4)c3/c(=C(\C#N)c3cnc4cc(Cl)c(Cl)cc4n3)n2B(c2ccccc2)c2ccccc2)c1 [Compound D-4] | B (Solubility 0.5% or greater and less than 2%) | 29 nm | 883 nm |  |  |  |  | 0.012 |  |  | 4 (3≤ΔEab value<5) | 5 (ΔEab value<3) |
| CCCCCCCCC(CCCCCC)COc1ccc(-c2c3/c(=C(\C#N)c4cnc5cc(Cl)c(Cl)cc5n4)n(B(c4ccccc4)c4ccccc4)c(-c4ccc(OCC(CCCCCC)CCCCCCCC)cc4)c3/c(=C(\C#N)c3cnc4cc(Cl)c(Cl)cc4n3)n2B(c2ccccc2)c2ccccc2)cc1 (stereo not drawn) [Compound E-1, reference compound] | C (Solubility less than 0.5%) | 31 nm | 884 nm |  |  |  |  | 0.019 |  |  | 5 (ΔEab value<3) | 5 (ΔEab value<3) |
| CCC(C)COc1cccc(-c2c3/c(=C(\C#N)c4cnc5ccccc5n4)n(B(c4ccccc4)c4ccccc4)c(-c4cccc(OCC(C)CC)c4)c3/c(=C(\C#N)c3cnc4ccccc4n3)n2B(c2ccccc2)c2ccccc2)c1 [Compound D-7] | A (Solubility 2% or greater) | 29 nm | 863 nm |  |  |  |  | 0.013 |  |  | 5 (ΔEab value<3) | 5 (ΔEab value<3) |
| CCCCCCCCCCC(CCCCCCCC)COc1cccc(-c2c3/c(=C(\C#N)c4cnc5ccccc5n4)n(B(c4ccccc4)c4ccccc4)c(-c4cccc(OCC(CCCCCCCC)CCCCCCCCCC)c4)c3/c(=C(\C#N)c3cnc4ccccc4n3)n2B(c2ccccc2)c2ccccc2)c1 [Compound D-29] | A (Solubility 2% or greater) | 28 nm | 862 nm |  |  |  |  | 0.006 |  |  | 5 (ΔEab value<3) | 5 (ΔEab value<3) |
| CC(CCC(COc1cccc(-c2c3/c(=C(\C#N)c4cnc5ccccc5n4)n(B(c4ccccc4)c4ccccc4)c(-c4cccc(OCC(CCC(C)CC(C)(C)C)C(C)CC(C)(C)C)c4)c3/c(=C(\C#N)c3cnc4ccccc4n3)n2B(c2ccccc2)c2ccccc2)c1)C(C)CC(C)(C)C)CC(C)(C)C [Compound D-28] | A (Solubility 2% or greater) | 29 nm | 863 nm |  |  |  |  | 0.006 |  |  | 5 (ΔEab value<3) | 5 (ΔEab value<3) |
| COc1ccc2oc(/C(C#N)=c3/c4c(-c5cccc(OCC(CCC(C)CC(C)(C)C)C(C)CC(C)(C)C)c5)n(B(c5ccccc5)c5ccccc5)/c(=C(/C#N)c5nc6cc(C)ccc6o5)c4c(-c4cccc(OCC(CCC(C)CC(C)(C)C)C(C)CC(C)(C)C)c4)n3B(c3ccccc3)c3ccccc3)nc2c1 [Compound D-43] | A (Solubility 2% or greater) | 30 nm | 748 nm |  |  |  |  | 0.003 |  |  | 5 (ΔEab value<3) | 5 (ΔEab value<3) |
| CCCCCCCCC(CCCCCCCC)COc1cccc(-c2c3/c(=C(\C#N)c4cnc5cc(C)ccc5n4)n(B(c4ccccc4)c4ccccc4)c(-c4cccc(OCC(CCCCCCCC)CCCCCCCC)c4)c3/c(=C(\C#N)c3cnc4cc(C)ccc4n3)n2B(c2ccccc2)c2ccccc2)c1 [Compound D-8] | A (Solubility 2% or greater) | 31 nm | 866 nm |  |  |  |  | 0.01 |  |  | 5 (ΔEab value<3) | 5 (ΔEab value<3) |
| CCCCCCCCCCC(CCCCCCCC)COc1cccc(-c2c3/c(=C(\C#N)c4cnc5cc(Cl)c(Cl)cc5n4)n(B(c4ccccc4)c4ccccc4)c(-c4cccc(OCC(CCCCCCCC)CCCCCCCCCC)c4)c3/c(=C(\C#N)c3cnc4cc(Cl)c(Cl)cc4n3)n2B(c2ccccc2)c2ccccc2)c1 [Compound D-31] | A (Solubility 2% or greater) | 28 nm | 884 nm |  |  |  |  | 0.01 |  |  | 5 (ΔEab value<3) | 5 (ΔEab value<3) |
| CCCCCCCCCCCCCCCCCCOc1cccc(-c2c3/c(=C(\C#N)c4nc5ccccc5s4)n(B(c4ccccc4)c4ccccc4)c(-c4cccc(OCCCCCCCCCCCCCCCCCC)c4)c3/c(=C(\C#N)c3nc4ccccc4s3)n2B(c2ccccc2)c2ccccc2)c1 [Compound D-11] | B (Solubility 0.5% or greater and less than 2%) | 30 nm | 779 nm |  |  |  |  | 0.009 |  |  | 5 (ΔEab value<3) | 5 (ΔEab value<3) |
| CCCCC(CC)COc1cccc(-c2c3/c(=C(\C#N)c4ccc5ccccc5n4)n(B(c4ccccc4)c4ccccc4)c(-c4cccc(OCC(CC)CCCC)c4)c3/c(=C(\C#N)c3ccc4ccccc4n3)n2B(c2ccccc2)c2ccccc2)c1 [Compound D-10] | A (Solubility 2% or greater) | 30 nm | 814 nm |  |  |  |  | 0.01 |  |  | 5 (ΔEab value<3) | 5 (ΔEab value<3) |
| CC(CCC(COc1cccc(-c2c3/c(=C(\C#N)c4cnc5cc(Cl)c(Cl)cc5n4)n(B(c4ccccc4)c4ccccc4)c(-c4cccc(OCC(CCC(C)CC(C)(C)C)C(C)CC(C)(C)C)c4)c3/c(=C(\C#N)c3cnc4cc(Cl)c(Cl)cc4n3)n2B(c2ccccc2)c2ccccc2)c1)C(C)CC(C)(C)C)CC(C)(C)C [Compound D-32] | A (Solubility 2% or greater) | 28 nm | 884 nm |  |  |  |  | 0.01 |  |  | 5 (ΔEab value<3) | 5 (ΔEab value<3) |
| CCCCCCCC/C=C\CCCCCCCCOc1cccc(-c2c3/c(=C(\C#N)c4cnc5cc(Cl)c(Cl)cc5n4)n(B(c4ccccc4)c4ccccc4)c(-c4cccc(OCCCCCCCC/C=C\CCCCCCCC)c4)c3/c(=C(\C#N)c3cnc4cc(Cl)c(Cl)cc4n3)n2B(c2ccccc2)c2ccccc2)c1 [Compound D-5] | B (Solubility 0.5% or greater and less than 2%) | 29 nm | 884 nm |  |  |  |  | 0.01 |  |  | 5 (ΔEab value<3) | 5 (ΔEab value<3) |
